Test in all cases: inhibition of tumour cell growth, NCI panel, 48 h
Experiment [1] relates to SK-MEL-2.
Experiment [2] has as its system UO-31.
The subject of experiment [3] is HOP-62.
The subject of experiment [4] is SN12C.
In experiment [5] the test system is ACHN.
Experiment [6] deals with SNB-75.
The test system of experiment [7] is HCT-15.
The test system of experiment [8] is UACC-257.
In experiment [9] the test system is K562.
In experiment [10] the test system is SF-539.
Experiment [11] relates to SK-MEL-28.
In experiment [12] the test system is TK-10.
For experiment [13], the system named is MOLT-4.
Experiment [14] has as its system U-251.
Experiment [15] relates to MCF7.
Experiment [16] deals with A549.
In experiment [17] the test system is NCI/ADR-RES.
Experiment [18] has as its system COLO 205.
Experiment [19] concerns SW-620.
Experiment [20] has as its system SK-MEL-5.

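Five compound concentrations were applied to cells in 96-well plates for 48 hours; endpoints were derived by simple linear interpolation of the resulting dose-response curve. The concentration for 50% growth inhibition is given as GI50.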 Activity calls are given as the source filed them. No stated cut-off is given here; in the data, active = GI50 up to about 1.1 µM and inactive = higher.

Consider `CCCCCCCCCCCCCCCc1nnc(S)[nH]1`, for which the GI50 was 29.6 µM (inactive) in experiment [1]; 24 µM (inactive) in [2]; > 100 µM (inactive) in experiment [3]; > 100 µM (inactive) in experiment [4]; > 100 µM (inactive) in experiment [5]; > 100 µM (inactive) in experiment [6]. For the same compound, the GI50 is 48 µM in experiment [7]; 88.7 µM (inactive) in [8]; 52.6 µM (inactive) in [9]; > 100 µM (inactive) in [10]; > 100 µM (inactive) in experiment [11]; > 100 µM (inactive) in experiment [12]. Besides, the results for the GI50 in [13] and in experiment [14] were 20.8 µM (inactive) and > 100 µM (inactive), respectively.

With `CN1C(=O)C(C#N)C2C[C@@]1(C)Oc1ccccc12` (stereo partly specified), the GI50 in experiment [1], in experiment [2], in experiment [15], in experiment [3], in experiment [5] and in experiment [16] was > 100 µM (inactive) each time. The GI50 in experiment [17] is > 100 µM (inactive); in experiment [18] it was > 100 µM (inactive); in [19], > 100 µM (inactive); in experiment [6], > 100 µM (inactive); in experiment [7] it was greater than 100 µM; in experiment [8] it was > 100 µM (inactive). The GI50 in [9] was > 100 µM (inactive); in experiment [20], > 100 µM (inactive); in [11], > 100 µM (inactive); in experiment [12], > 100 µM (inactive); in experiment [13] it was 7.29 µM (inactive); in [14], > 100 µM (inactive).

Take `CC1(C)OC[C@H](C(=N)OCc2ccccc2)O1`: the GI50 in [1], in experiment [2], in experiment [3], in experiment [4], in experiment [5] and in [16] was > 100 µM (inactive) each time. Moreover, the GI50 in experiment [18] was > 100 µM (inactive); in experiment [19], > 100 µM (inactive); in experiment [6], > 100 µM (inactive); in experiment [7], greater than 100 µM; in experiment [8], > 100 µM (inactive); in experiment [9] it was > 100 µM (inactive). The GI50 in experiment [20], in [10], in [11], in [12], in experiment [13] and in [14] was > 100 µM (inactive) throughout.

For the compound `C=C1CC[C@@H](Br)C(C)(C)[C@]12CCC(C)(O)C(Cl)C2` (stereo partly specified), the GI50 was 18.5 µM (inactive) in [1]; 18.1 µM (inactive) in experiment [2]; 23.3 µM (inactive) in [3]; 16.4 µM (inactive) in experiment [4]; 20.9 µM (inactive) in experiment [5]; 20 µM (inactive) in [16]. The GI50 in [18] was 16 µM (inactive); in experiment [19], 14.2 µM (inactive); in experiment [6] it was 31 µM (inactive); in experiment [7], 16 µM; in experiment [8] it was 17.9 µM (inactive); in experiment [9] it was 22.4 µM (inactive). Further, the GI50 in experiment [20] is 20.9 µM (inactive); in experiment [11], 20 µM (inactive); in experiment [12], 29.2 µM (inactive); in [13], 18.7 µM (inactive); in experiment [14], 16.2 µM (inactive).

`O=c1oc2ccccc2n1P(=O)(Oc1ccc(Cl)cc1)n1c(=O)oc2ccccc21`: the GI50 in experiment [1] is 55 µM (inactive); in experiment [2] it was > 100 µM (inactive); in experiment [3], > 100 µM (inactive); in [4], > 100 µM (inactive); in experiment [5], > 100 µM (inactive); in [16], > 100 µM (inactive). In addition, the GI50 in [18] is > 100 µM (inactive); in [19], > 100 µM (inactive); in experiment [6], > 100 µM (inactive); in [8] it was > 100 µM (inactive); in experiment [9], 42.2 µM (inactive); in experiment [20] it was > 100 µM (inactive). For the same compound, the GI50 is > 100 µM (inactive) in experiment [10]; > 100 µM (inactive) in [11]; > 100 µM (inactive) in [12]; 39.5 µM (inactive) in experiment [13]; > 100 µM (inactive) in [14].

For the compound `O=C(NN1C(=O)CSC1c1ccc(C(F)(F)F)cc1)c1ccncc1` (stereo unspecified), the GI50 in experiment [1], in experiment [2], in [15], in [3], in experiment [4] and in experiment [16] was > 100 µM (inactive) in each case. Moreover, the GI50 in [17] was > 100 µM (inactive); in experiment [19], > 100 µM (inactive); in experiment [6], > 100 µM (inactive); in experiment [7] it was greater than 100 µM; in experiment [8], > 100 µM (inactive); in [9], > 100 µM (inactive). Moreover, the GI50 in experiment [20], in experiment [10], in experiment [11], in experiment [13] and in experiment [14] was > 100 µM (inactive) throughout.

As for `Clc1cc(N/N=C(\c2ccccc2)c2ccccn2)ncn1`, the GI50 in experiment [1] was 4.78 µM (inactive); in experiment [2], 0.324 µM (active); in [15] it was < 0.01 µM (active); in experiment [3] it was 0.256 µM (active); in experiment [5], 0.0266 µM (active); in [16] it was 0.55 µM (active). Further, the GI50 in experiment [17] is 0.0336 µM (active); in experiment [18] it was < 0.01 µM (active); in experiment [19] it was 0.0238 µM (active); in experiment [6], 20.7 µM (inactive); in experiment [8], 0.0274 µM (active); in experiment [9] it was 0.0644 µM (active). Moreover, the GI50 was 0.254 µM (active) in experiment [20]; 0.197 µM (active) in [10]; 1.44 µM (inactive) in experiment [11]; 0.0363 µM (active) in experiment [12]; 0.0308 µM (active) in experiment [13]; 0.427 µM (active) in experiment [14].

For `N#Cc1c(N)c2c(c(-c3ccccc3)c1-c1ccccc1)C(=O)N(NC(=S)Nc1ccccc1)C2=O`, the GI50 in [1] is > 100 µM (inactive); in experiment [2], 34.1 µM (inactive); in [15], 60.3 µM (inactive); in experiment [4], > 100 µM (inactive); in experiment [5], 94.2 µM (inactive); in experiment [16], 64.1 µM (inactive). Moreover, the GI50 in [17] was 59.3 µM (inactive); in experiment [18], 75.2 µM (inactive); in [19], > 100 µM (inactive); in experiment [6], 65.2 µM (inactive); in experiment [7], 71.8 µM; in experiment [8], > 100 µM (inactive). In addition, the GI50 in experiment [9] was 88.7 µM (inactive); in [20], 43.1 µM (inactive); in experiment [10], 89.9 µM (inactive); in experiment [11], 47.2 µM (inactive); in [12], 84.5 µM (inactive); in [13] it was 46.8 µM (inactive). Besides, the GI50 in [14] was > 100 µM (inactive).

As to `CC(=O)O[C@H]1CC[C@H]2[C@@H]3CCC(C(C)=O)[C@H](C(=O)O)[C@H]3CC[C@]12C` (stereo partly specified), the GI50 in [1], in [2], in [15], in [3], in experiment [16] and in [17] was > 100 µM (inactive) throughout. In addition, the GI50 in experiment [18] is > 100 µM (inactive); in experiment [19], > 100 µM (inactive); in experiment [7] it was greater than 100 µM; in [8], > 100 µM (inactive); in experiment [9], > 100 µM (inactive); in experiment [20], > 100 µM (inactive). Moreover, the GI50 in experiment [10], in [11], in [12], in [13] and in experiment [14] was > 100 µM (inactive) throughout.

Take `CCOC(=O)/C=C1/C(CCCOCc2ccccc2)C2CCCC23CC2(CCN13)OCCO2` (stereo unspecified): the GI50 was 17 µM (inactive) in experiment [1]; 17.2 µM (inactive) in experiment [2]; 25.5 µM (inactive) in experiment [4]; 22.3 µM (inactive) in experiment [5]; 18.9 µM (inactive) in experiment [16]; 19.1 µM (inactive) in experiment [18]. The GI50 in [19] is 33.9 µM (inactive); in experiment [6], 2.99 µM (inactive); in experiment [7] it was 20.4 µM; in experiment [8], 19.5 µM (inactive); in [9], 13.5 µM (inactive); in [20], 15.7 µM (inactive). Moreover, the GI50 in experiment [11] was 18.4 µM (inactive); in experiment [12] it was 36.2 µM (inactive); in experiment [13] it was 11.4 µM (inactive); in experiment [14] it was 20.1 µM (inactive).

Regarding `CCOc1ncn(-c2ccc(NC(=S)Nc3cccc(O)c3)cc2)n1`, the GI50 in experiment [2], in experiment [15], in experiment [3], in experiment [4], in experiment [16] and in experiment [18] was > 100 µM (inactive) in each case. Further, the GI50 was > 100 µM (inactive) in [19]; 40.4 µM (inactive) in experiment [6]; greater than 100 µM in experiment [7]; > 100 µM (inactive) in [8]; > 100 µM (inactive) in experiment [9]; > 100 µM (inactive) in experiment [20]. The GI50 in experiment [10], in [11], in experiment [12], in experiment [13] and in [14] was > 100 µM (inactive) in each case.

On to `CC12CCC(=O)N1c1cnccc1N2` (stereo unspecified), for which the GI50 in experiment [1], in [2], in experiment [3], in experiment [4], in [5] and in experiment [16] was > 100 µM (inactive) in each case. Further, the GI50 in [18] was > 100 µM (inactive); in experiment [19], > 100 µM (inactive); in experiment [6], > 100 µM (inactive); in [7], greater than 100 µM; in [8], > 100 µM (inactive); in [9], > 100 µM (inactive). Further, the GI50 in experiment [20], in experiment [10], in [11], in experiment [12], in experiment [13] and in experiment [14] was > 100 µM (inactive) throughout.

For the origin of these results see ChEMBL document CHEMBL1201862, “PubChem BioAssay data set” (2004).
